Experimental data: ChEMBL document CHEMBL1141988, “Bis(aminopyrrolidine)-derived ureas (APUs) as potent MCH1 receptor antagonists” (Bioorg Med Chem Lett, 2005)

The compounds below were run against Melanin-concentrating hormone receptor 1 (Homo sapiens, UniProt Q99705) (assay: Displacement of [125I]MCH from human Melanin-concentrating hormone 1 (MCH1) receptor modified for optimal expression in HEK293 cells).
Chain of Melanin-concentrating hormone receptor 1 (Q99705 whole entry): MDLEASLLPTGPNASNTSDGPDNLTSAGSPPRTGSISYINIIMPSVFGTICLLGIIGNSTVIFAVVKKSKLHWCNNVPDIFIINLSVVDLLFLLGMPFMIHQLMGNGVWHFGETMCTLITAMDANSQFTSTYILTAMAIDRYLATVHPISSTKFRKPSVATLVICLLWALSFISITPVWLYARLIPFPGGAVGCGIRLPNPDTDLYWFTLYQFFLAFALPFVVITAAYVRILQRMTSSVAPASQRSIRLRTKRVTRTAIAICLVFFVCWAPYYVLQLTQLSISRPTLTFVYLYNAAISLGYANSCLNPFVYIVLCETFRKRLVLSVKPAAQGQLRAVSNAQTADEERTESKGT
Type: cell-based
`CN(C(=O)c1ccc(-c2ccc(C(F)(F)F)cc2)cc1)C1CCN(C(=O)N(C)C2CCN(CCO)C2)C1` (centres undefined) showed a Ki of 0.096 µM. With `CN(C(=O)c1ccc(-c2ccc(C(F)(F)F)cc2)cc1)C1CCN(C(=O)N(C)C2CCN(CCS(=O)(=O)c3ccc(Cl)cc3)C2)C1` (centres undefined) the Ki was 0.014 µM. Work on `CN1CCC(N(C)C(=O)CCCN(C)C(=O)c2ccc(-c3ccccc3)cc2)C1` (centres undefined) yielded a Ki of 0.142 µM. `CN(C(=O)c1ccc(-c2ccc(C(F)(F)F)cc2)cc1)C1CCN(C(=O)N(C)C2CCN(CCS(=O)(=O)N3CCCC3)C2)C1` (centres undefined) was tested, and the Ki was 0.082 µM. In the case of `CN(C(=O)c1ccc(-c2ccc(C(F)(F)F)cc2)cc1)C1CCN(C(=O)N(C)C2CCN(CCOc3ccc(Cl)cc3)C2)C1` (centres undefined), the Ki is reported as 0.018 µM. Compound `CN(C(=O)CCCC(=O)c1ccc(Cl)cc1)C1CCN(C(=O)N(C)C2CCN(CCCc3ccccc3)C2)C1` (centres undefined) has a Ki of 0.048 µM. With `CN(C(=O)c1ccc(-c2ccc(C(F)(F)F)cc2)cc1)C1CCN(C(=O)N(C)C2CCN(CCCc3ccc(Cl)cc3)C2)C1` (centres undefined) the Ki was 0.0073 µM. `CN(C(=O)c1ccc(Oc2ccc(F)cc2)cc1)C1CCN(C(=O)N(C)C2CCN(CCCc3ccc(Cl)cc3)C2)C1` (centres undefined) showed a Ki of 0.0053 µM. Work on `CN(C)CC1CCc2cc(NC(=O)c3ccc(-c4ccc(F)cc4)cc3)ccc2C1` (centres undefined) yielded a Ki of 0.0055 µM.
